Values quoted from earlier work, collected in paper PMC4264749, “Phlebotomy Treatment for Elimination of Perfluoroalkyl Acids in a Highly Exposed Family: A Retrospective Case-Series” (PLoS ONE, 2014).

Settings: cited from earlier work

Substance: cholestyramine
- facilitating removal / elimination of PFAAs: successful
- PFOA levels in users compared to non-users (individuals using it for other medical reasons, West Virginia drinking water contamination): significantly lower
